One experiment concerns MCF7-R cells. The experiment can be described thus: Oxygen concentration under MCF7-R model agar half spheroid measured with Au microdisc electrode array; pharmacological modulation of cellular oxygen consumption. It is filed as cell-based. Conditions: for Change of measured oxygen concentration after addition: 100 μm [sic] NaN3, 200 μm [sic] DNP; for Measured O2 concentration (%) after NaN3: 100 μM NaN3, representative experiment. As for the experimental part: Confluent plates of MCF7-R cells ere trypsinized and collected in a sterile 1 mL vial. The cell density and the total number of cells in the vial were estimated by cell counting using a hematocytometer. The cells were spun down in a centrifuge and the supernant medium removed. […] The vial with the cell-agar mixture was constantly kept in water bath at 37° C. to prevent the agar from gelling. Tiny hemispherical droplets (800-1000 μm diameter) of this mixture were deposited onto a Teflon® sheet using 0.5-2.5 μL pipette (Eppendorf, Hauppauge, N.Y.) to obtain hemispherical multicellular model agar spheroids. The Teflon® sheet with the model agar half spheroids was incubated in culture medium used for MCF7-R cell culture at 37° C. in 5% CO2. Henceforth, model agar half spheroids will be referred to simply as half spheroids.
The Au microdisc electrodes were polished using a fine emery paper to expose fresh electrode surface before each experiment. The polished electrodes were rinsed with DI water and allowed to dry in air (˜1 hour) after which a thin (˜10 μm) layer (spacer) of cellulose acetate was deposited. The electrodes were pre-conditioned electrochemically prior to starting the half spheroid experiment by continuous cyclic voltammograms (CV) until a stable measurement was reached (at least 50 CVs). The electrodes were calibrated for oxygen reduction current in PBS at different oxygen concentrations prior to the half spheroid experiment (henceforth, referred to as pre-calibration). A half spheroid was positioned on top of the electrode array and the oxygen concentrations inside the spheroid interrogated by linear scan voltammetry (LSV). Oxygen reduction currents under the half spheroid were recorded for half an hour after which the viability of cells inside the half spheroid was checked by pharmacological modulation of cellular oxygen consumption by administering metabolic poisons—NaN3 and DNP. At the end of the experiment the spheroid was removed and current corresponding to ambient oxygen concentration was recorded. The spheroid experiment was followed by a post experiment calibration (henceforth, referred to as post-calibration) of the electrodes to check for electrode drift. The LSV data recorded during these experiments was post processed to extract oxygen concentration values under the spheroid.
The Teflon® sheet on which half spheroids are was is removed from the incubating medium. A half spheroid was carefully transferred onto the electrode array using a curved edge of a pair of tweezers such that the radial electrode array was aligned along a spheroid radius (FIG. 8E). The positioning was done under a 2× stereo microscope to ensure that the spheroid is resting on its flat (bottom) edge. After the agar spheroid was positioned at the desired location a drop of low gelling agarose made in PBS maintained in liquid form at 37° C. was dispensed onto the spheroid from the top to secure its position and prevent it from moving with convective flow. PBS was added to the measurement device reservoir immediately after the spheroid position was secured. The time taken to position the spheroid from the time the half spheroid Petri-dish was removed from the incubator to the time when oxygen measurement is started is less than 3 minutes. During this time the cells in the spheroid (except the outer most shell) were not directly exposed to air.
Desired volumes of the NaN3, DNP and glucose solutions were gently added to the test solution using a disposable transfer pipettes. The solution was then homogenized by gentle circular movements induced by the same pipette for ˜10 s.

For experiment [1], the system named is BAC1.2F5 macrophage cells. The experiment can be described thus: Oxygen uptake by BAC1.2F5 macrophage cells measured with Pt microring electrode (pulse amperometry). It is filed as cell-based, mouse. How it is done: A CHI 1030 8-channel potentiostat (CH Instruments Inc., Austin, TZ) was used to perform all electrochemical experiments: Cyclic Voltammetry (CV) and Pulse Amperometry (PA). The experimental setup was placed inside a custom built Faraday cage which was equipped with an XYZ stage for manipulation of the devices and a custom built thermostat to maintain the temperature inside the Faraday cage at 25° C. A Scion camera was mounted on top of the Faraday cage to visual observation of the sensing unit of interest. The microfabricated Pt microring electrode was used as the working electrode of the electrochemical cell. An Ag/AgCl reference and a Pt counter electrode were used to complete the cell.
Live mouse macrophage cells (BAC1.2F5) were used for cell experiments. Culture and disposal procedures of these cells are described by E1-Moatassim and Dubyak (el-Moatassim and Dubyak 1992) in detail.
A 100 μL drop of cell medium with suspended cells (105 BAC 1.2F5 mouse macrophages/mL) was gently added to the buffer with a disposable plastic pipette on top of the chip ˜5 mm from the targeted sensing unit. A simple hydrodynamic manipulation technique previously developed in our laboratory (Yoshida, Tohda et al. 2003) was then used to precisely position the selected cell(s) inside the targeted microring electrode.
˜500 μL of the required solution was added to the buffer using a disposable plastic pipette. The buffer was then homogenized by gentle circular movements induced by the same pipette for ˜10 seconds.
Continuous measurement will lead to sustained depletion of oxygen near the electrode. When cells are positioned near the electrodes this depletion of oxygen may perturb oxygen dependent cellular processes by decreasing the local availability of oxygen. To mitigate this undesirable effect, a pulse amperometry (PA) protocol was implemented. In this protocol the electrode potential is maintained at +0.5 V where no oxygen reduction occurs, before stepping to −0.55 V at which oxygen is reduced. The length of both pulses was chosen to be 250 ms. This restricts the time of depletion of oxygen to the cathodic pulses by allowing for replenishment of oxygen during the anodic pulses. This protocol ensures a sampling rate of 2 Hz that can assess metabolic processes occurring on the seconds time scale. Current proportional to local oxygen concentration is recorded and averaged at the end of each cathodic pulse for 50 ms. This recording period is long enough to obtain a representative value while also minimizing interference by 60 Hz noise.
To confirm that the observed variations in oxygen concentration indicated by the MEMS device reflect physiological processes of the cell(s), we performed another experiment where the metabolic rate of the cell(s) was pharmacologically modulated. […]

This is an account of results in patent publication US9488641B2, “Multicellular system and method for multiparametric analysis” (Case Western Reserve University, priority 2012, dated 2016).

“Also recorded” adds a separate entry of the source.

`O=C[C@H](O)[C@@H](O)[C@H](O)[C@H](O)CO` [D-Glucose]: in the experiment with MCF7-R cells (25 mM D-Glucose added to PBS after the glucose-deprivation increase (FIG. 35)), the “Change of measured oxygen concentration after addition of glucose to the PBS” value is “decrease”.
Turning to `O=[N+]([O-])c1ccc(O)c([N+](=O)[O-])c1` [DNP, 2,4 dinitrophenol], the “Change of measured oxygen concentration after addition” value in the experiment on MCF7-R cells (15% cell volume fraction spheroid (FIG. 30)) is reported as “decreases”; in the experiment with MCF7-R cells (15% cell volume fraction spheroid with 5% ambient pO2 (FIG. 34)) it was “decreases”; in the experiment with MCF7-R cells (15% cell volume fraction spheroid with 10% ambient pO2 (FIG. 33)) it was “decreases”; in the experiment on MCF7-R cells (30% cell volume fraction spheroid as printed (FIG. 31), non-zero oxygen core), “decreases”. Also, the “Change of measured oxygen concentrations after addition” value with MCF7-R cells (30% cell volume fraction half spheroid, ~20% ambient O2, 100 μM sodium azide, then 200 μM DNP (final concentrations)) is on record as “decreased rapidly; also recorded: decreases”. In the experiment on MCF7-R cells (MCF7-R cells in half spheroid, 100 μM NaN3, subsequent 200 μM DNP (final concentrations)), the “Oxygen consumption by the cells” value was “rapid increase”.
`[N-]=[N+]=[N-]` [NaN3, sodium azide]: the “Measured O2 concentration (%) after NaN3” value stood at 15.9% in the experiment with MCF7-R cells (electrode E1, 610 μm from the center of the spheroid (outside spheroid), 30% cell volume fraction half spheroid); 14.3% in the experiment on MCF7-R cells (electrode E2, 470 μm from the center of the spheroid, 30% cell volume fraction half spheroid); 10.8% in the experiment on MCF7-R cells (electrode E3, 370 μm from the center of the spheroid, 30% cell volume fraction half spheroid); 9.9% in the experiment on MCF7-R cells (electrode E4, 270 μm from the center of the spheroid, 30% cell volume fraction half spheroid); 9.6% in the experiment on MCF7-R cells (electrode E5, 180 μm from the center of the spheroid, 30% cell volume fraction half spheroid).
Consider `C[C@@H]1O[C@@H](O[C@H]2C[C@@H](O)[C@]3(CO)[C@H]4[C@H](O)C[C@]5(C)[C@@H](C6=CC(=O)OC6)CC[C@]5(O)[C@@H]4CC[C@]3(O)C2)[C@H](O)[C@H](O)[C@H]1O` [ouabain], for which, in experiment [1] (cluster of 6 cells inside microring), the “Current higher than that recorded before administration of ouabain” value is given as approximately 1.7 nA. Besides, the “Stabilized electrode current after addition of ouabain” value in experiment [1] (cluster of 6 cells inside microring, ~7.1 nA before ouabain) is on record as approximately 8.8 nA. Moreover, the “Oxygen concentration corresponding to stabilized current after ouabain” value in experiment [1] (cluster of 6 cells inside microring, ~9% before ouabain) is on record as approximately 15%. In addition, in experiment [1] (representative of 3 experiments), the “Stationary local oxygen concentration immediately after administration of ouabain” value is recorded as “increase”.
